Test results: patent publication US12410419B2, “Use of enzyme that cleaves both alpha- and beta- 1,4-glycosidic bonds” (Korea University Research and Business Foundation, priority 2019, dated 2025)

Experiments:
[1] = molecular target: Vibrio sp. strain EJY3 α-L-fucosidase VeFUC (VEJY3_11310, UniProt H2IHW9.1), wild type, SEQ ID NO: 1 (Vibrio sp. EJY3, UniProt A0ACD6BAZ0); test: Kinetic parameters of VeFUC for pNP-α-L-Fuc; type: biochemical; details: Table 1, Present invention
Method: Genomic DNA of Vibrio sp. strain EJY3 for cloning a gene encoding VeFUC was prepared as follows: Vibrio sp. strain EJY3 was cultured in a minimum medium consisting of 23 g/L Instant Ocean Sea Salt (Aquarium Systems, Mentor, OH, USA), 50 mM Tris-HCl (pH 7.4), 2 g/L glucose, 1 g/L yeast extract and 0.5 g/L ammonium chloride at 303 K and 200 rpm for 18 hours. The genomic DNA was extracted from a culture using the DNeasy Blood & Tissue Kit (Qiagen, Valencia, CA, USA) according to the manufacturer's protocol. A target gene, VEJY3_11310 (UniProt accession no. H2IHW9.1) was amplified by PCR using the following primers. The underlined parts are BamHI and XhoI restriction enzyme sites; […]
(§1) Recombinant E. coli loaded with the pET21a-VeFUC plasmid was grown at 310 K and 200 rpm until an absorbance measured at 600 nm in a culture Luria-Bertani (LB) broth containing 100 mg L^−1 ampicillin reached 0.6. […] The concentrated enzyme solution was analyzed by bicinchoninic acid (BCA) protein analysis (Thermo Fisher Scientific, Waltham, MA) and 12% (w/v) SDS-PAGE gel electrophoresis to determine the concentration, size and purity of the target protein.
(§2) The reaction was terminated by adding 500 μl of 1 M sodium carbonate thereto, and the absorbance of the reaction mixture was quantified by spectrophotometry at 405 nm. […]

[2] = tested on: BT_2970 bacterial fucosidase, B. subtilis thetaiotaomicron; details: Table 1; Sakurama 2012; cited from earlier work
[3] = tested on: BT_2970 bacterial fucosidase; details: Table 1; Sakurama 2012; cited from earlier work
[4] = tested on: AlfA bacterial fucosidase, Lactobacillus casei; details: Table 1; Rodriguez-Diaz 2011; cited from earlier work
[5] = tested on: AlfB bacterial fucosidase, L. casei; design: Vmax: unit not given here; details: Table 1; Rodriguez-Diaz 2011; cited from earlier work
[6] = tested on: AlfC bacterial fucosidase, L. casei; design: Vmax: unit not given here; details: Table 1; Rodriguez-Diaz 2011; cited from earlier work
[7] = tested on: aLfuk1 bacterial fucosidase; details: Table 1; Benesova 2013; cited from earlier work
[8] = tested on: TM0306 bacterial fucosidase, T. maritima; details: Table 1, Sulzenbacher 2004, cited from earlier work
[9] = tested on: TfFuc1 bacterial fucosidase, Tannerella forsythia; details: Table 1; Megson 2015; cited from earlier work
[10] = tested on: XCC2888 bacterial fucosidase, Xanthomonas campestris; details: Table 1, Dupoiron 2015, cited from earlier work
[11] = tested on: Alf1_Wf bacterial fucosidase, Wenyingzhuangia fucanilytica; details: Table 1; Dong 2017; cited from earlier work
[12] = substrate: C[C@@H]1O[C@@H](Oc2ccc([N+](=O)[O-])cc2)[C@@H](O)[C@H](O)[C@@H]1O; test: Kinetic parameters of VeFUC for pNP-α-L-Fuc; type: biochemical, Vibrio sp. strain EJY3; details: other: text, 313 K, 10 mM sodium acetate buffer (pH 6.0), Lineweaver-Burk plot, 40.0 °C
Method: Genomic DNA of Vibrio sp. strain EJY3 for cloning a gene encoding VeFUC was prepared as follows: Vibrio sp. strain EJY3 was cultured in a minimum medium consisting of 23 g/L Instant Ocean Sea Salt (Aquarium Systems, Mentor, OH, USA), 50 mM Tris-HCl (pH 7.4), 2 g/L glucose, 1 g/L yeast extract and 0.5 g/L ammonium chloride at 303 K and 200 rpm for 18 hours. The genomic DNA was extracted from a culture using the DNeasy Blood & Tissue Kit (Qiagen, Valencia, CA, USA) according to the manufacturer's protocol. A target gene, VEJY3_11310 (UniProt accession no. H2IHW9.1) was amplified by PCR using the following primers. The underlined parts are BamHI and XhoI restriction enzyme sites;
Recombinant proteins were purified using a HisTrap column (GE Healthcare, Piscataway, NJ, USA) by adding sequences encoding 6 histidines to the reverse primer. A PCR product was treated with BamHI and XhoI restriction enzymes and subsequently ligated to a pET-21a plasmid (Novagen, Darmstadt, Germany) to construct a PET21a-VeFUC plasmid.
as §1, §2
In order to measure the kinetic parameters of VeFUC for pNP-α-L-Fuc, enzymatic reactions were performed at different concentrations of pNP-α-L-Fuc in a range of 0.109 to 0.875 mM under the same conditions described above. Vmax, Km and kcat, which are enzyme kinetic parameters of VeFUC were measured from a Lineweaver-Burk plot. […]

C[C@@H]1O[C@@H](Oc2ccc([N+](=O)[O-])cc2)[C@@H](O)[C@H](O)[C@@H]1O [pNP-α-L-Fuc, p-nitrophenyl-α-L-fucopyranoside]
Vmax [1]: 24.8 ± 0.9
Kcat ([1]; in 1/s): 4.81 ± 1.8
Km [2]: 1500 µM
Kcat [3]: 1.3 s⁻¹
Km [4]: 270 µM
Km [5]: 2900 µM
Vmax [5]: 6
Km [6]: 5300 µM
Vmax [6]: 22.2
Km [7]: 440 ± 20 µM
Km [8]: 34 ± 2 µM
Kcat ([8]; in 1/s): 5.4 ± 0.2
Km [9]: 670 ± 200 µM
Vmax [9]: 20.4
Km [10]: 700 ± 100 µM
Kcat ([10]; in 1/s): 6.1 ± 2.0
Kcat [11]: 5.44 s⁻¹
Km [11]: 3300 ± 420 µM
Vmax [11]: 4.75

B1: Vibrio sp. strain EJY3 α-L-fucosidase VeFUC (VEJY3_11310, UniProt H2IHW9.1), wild type, SEQ ID NO: 1 (Vibrio sp. EJY3) (protein)
chain: MTKPTAGELTGTSSQATSQLDNRNAFTGVSKQGLNRWKKNTFGMFIHWGLYCHRDLAGYYQGQYYDIISEWLPHFARIPMRDYKEYASDFNPSEFDADQVTALAKTAGMNYMVVTAKHHDGFAMYHSPSHPFNITDATPFKRDPVAELSQSCRHKDLDFGLYYSHVIDWENENAVSKAPNDWDFNPDQANYQEYWNNKCLPQVNELLEQYGDLCSLWFDMGGFDVQEEADHVRRIGELMALIRKKQPDAVVNSRVTAPECEYQLDWDIKTGHDNYMEPLYIKPYYWEGIATSNDNWGYSRNDNNTKSSKDLINQLCSVVSRGGNFLLNITLDHNGRIPQSLVRLLSEIGQWMQVNQEAVIDTEATPLQTGFNWGVVTHRPATNKLYLHVQRQPEQNVICLHSLNNRIKQVRLLDNQIKGHVSYLQKTHTDTGITASTLNLQLGHNYDRMPLVIELEYDGELDINPIVHQDRLAKVRLDTLNIAHFDPEKLTYRWTFQIQSPGRFALDLVSLETMHHKDPQWVHNGKTGRISCGGQSWEFELNLDKTDTNDAQVPWKNIHSRLGELHFPQAGEYTLEFSELPLAIDQSEKYGQDYINLEYLQLGPRLA
Km [12]: 6340 ± 480 µM
Vmax [12]: 24.8±0.9 U mg^−1 protein
kcat [12]: 4.81 ± 1.8 s⁻¹
